Assay results: ChEMBL document CHEMBL1140248, “3-(1,2,3-Triazol-1-yl)-1-thio-galactosides as small, efficient, and hydrolytically stable inhibitors of galectin-3” (Bioorg Med Chem Lett, 2005)

How the values were obtained:
Galectin-3 = Galectin-3 (Mus musculus, UniProt P16110); experiment: Dissociation constant for mouse Galectin-3
[1] = target: Galectin-3 (Mus musculus) (UniProt P16110); experiment: Relative affinity for mouse Galectin-3 compared to D-galactose-methyl-beta-glycoside; assay type: functional
Chain of Galectin-3 (Mus musculus) (P16110 whole entry): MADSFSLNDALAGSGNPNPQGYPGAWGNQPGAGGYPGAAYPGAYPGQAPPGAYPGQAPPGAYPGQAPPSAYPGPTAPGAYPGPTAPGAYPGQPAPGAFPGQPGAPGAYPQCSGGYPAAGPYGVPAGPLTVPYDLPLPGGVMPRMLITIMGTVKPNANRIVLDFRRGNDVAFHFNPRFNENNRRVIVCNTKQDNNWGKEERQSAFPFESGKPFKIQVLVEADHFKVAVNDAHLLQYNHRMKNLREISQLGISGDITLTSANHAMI

Chain of Galectin-3 (P16110 whole entry): as above

| Molecule | Kd (Galectin-3) [µM] | Affinity [1] |
| --- | --- | --- |
| CSC1OC(CO)C(O)C(n2cc(C(=O)NCCN3CCOCC3)nn2)C1O (stereo not drawn) | 571 | 7.5 |
| CSC1OC(CO)C(O)C(NC(=O)c2ccccc2)C1O (stereo not drawn) | 2690 | 1.7 |
| CCCCNC(=O)c1cn(C2C(O)C(CO)OC(SC)C2O)nn1 (stereo not drawn) | 124 | 36 |
| CSC1OC(CO)C(O)C(NC(=O)c2ccc3ccccc3c2)C1O (stereo not drawn) | 272 | 16 |
| CSC1OC(CO)C(O)C(n2cc(-c3ccccc3)nn2)C1O (stereo not drawn) | 147 | 29 |
| CCCc1cn(C2C(O)C(CO)OC(SC)C2O)nn1 (stereo not drawn) | 4600 | 1 |
| LACTOSE, ANHYDROUS | – | 20 |
| CSC1OC(CO)C(O)C(n2cc(C(=O)NCc3ccccc3)nn2)C1O (stereo not drawn) | – | 42 |
| CSC1OC(CO)C(O)C(n2cc(C(=O)NCCCO)nn2)C1O (stereo not drawn) | 386 | 12 |
| CSC1OC(CO)C(O)C(n2ccnn2)C1O (stereo not drawn) | > 20000 | < 0.2 |
| CNC(=O)c1cn(C2C(O)C(CO)OC(SC)C2O)nn1 (stereo not drawn) | 230 | 19 |
| CSC1OC(CO)C(O)C(n2cc(C3(O)CCCCC3)nn2)C1O (stereo not drawn) | 1750 | 2.5 |
| CS[C@H]1O[C@@H](COC2O[C@@H](O)[C@H](O)[C@@H](O)[C@H]2O)[C@H](O)[C@@H](NC(=O)c2ccc3ccccc3c2)[C@@H]1O (stereo partly drawn) | 4400 | 1 |
| CS[C@H]1O[C@@H](COC2O[C@@H](OC([C@H](O)CO)[C@H](O)[C@@H](NC(C)=O)C(C)=O)[C@H](O)[C@@H](O)[C@H]2O)[C@H](O)[C@@H](NC(=O)c2ccc3ccccc3c2)[C@@H]1O (stereo partly drawn) | 67 | 64 |
| COC(=O)c1cn(C2C(O)C(CO)OC(SC)C2O)nn1 (stereo not drawn) | 1410 | 3.2 |
